# Experiments:
# yeast α-glucosidase = yeast α-glucosidase (Saccharomyces cerevisiae, UniProt P53341); assay: In vitro α-glucosidase inhibition assay; assay type: biochemical; conditions: for Fold decrease of anti-α-glucosidase activity relative to compound 10e: compared with 4-ethylphenyl derivative 10e; for Fold increase of inhibitory activity relative to compound 10m: compared with 4-nitro derivative 10m; for Fold decrease of inhibitory activity relative to compound 10g: compared with 2,6-dimethyl derivative 10g
# α-glucosidase = α-glucosidase (Saccharomyces cerevisiae, UniProt P53341); assay: Kinetic study of α-glucosidase inhibition; assay type: biochemical, yeast
# Chain of α-glucosidase (P53341 whole entry): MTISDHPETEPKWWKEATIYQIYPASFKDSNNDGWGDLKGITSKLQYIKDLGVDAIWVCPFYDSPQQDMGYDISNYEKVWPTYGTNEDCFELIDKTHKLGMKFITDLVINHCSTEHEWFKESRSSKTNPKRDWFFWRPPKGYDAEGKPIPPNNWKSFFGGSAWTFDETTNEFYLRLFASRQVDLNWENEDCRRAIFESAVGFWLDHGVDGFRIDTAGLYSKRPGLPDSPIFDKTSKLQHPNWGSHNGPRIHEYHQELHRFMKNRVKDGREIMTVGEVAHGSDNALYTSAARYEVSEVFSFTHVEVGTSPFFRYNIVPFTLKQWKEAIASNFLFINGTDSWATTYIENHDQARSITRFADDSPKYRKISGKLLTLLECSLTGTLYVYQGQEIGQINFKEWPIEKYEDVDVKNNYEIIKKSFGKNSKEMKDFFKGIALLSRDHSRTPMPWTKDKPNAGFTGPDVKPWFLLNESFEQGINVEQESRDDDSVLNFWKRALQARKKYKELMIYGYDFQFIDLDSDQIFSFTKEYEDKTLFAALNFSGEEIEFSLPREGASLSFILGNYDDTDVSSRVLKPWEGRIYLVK
# Chain of yeast α-glucosidase (P53341 whole entry): as above
smiles,measurement,setting,value
"NC(=S)N/N=C/c1cc2ccccc2nc1SCc1cn(CC(=O)Nc2ccccc2)nn1 [Compound 10a, (E)-2-(4-(((3-((2-Carbamothioylhydrazineylidene)methyl)quinolin-2-yl)thio)methyl)-1H-1,2,3-triazol-1-yl)-N-phenylacetamide]",Fold decrease of anti-α-glucosidase activity relative to compound 10e,yeast α-glucosidase,5.38 folds
"Cc1ccc(NC(=O)Cn2cc(CSc3nc4ccccc4cc3/C=N/NC(N)=S)nn2)cc1 [Compound 10d, (E)-2-(4-(((3-((2-Carbamothioylhydrazineylidene)methyl)quinolin-2-yl)thio)methyl)-1H-1,2,3-triazol-1-yl)-N-(p-tolyl)acetamide]",Fold decrease of anti-α-glucosidase activity relative to compound 10e,yeast α-glucosidase,6.97 folds
"NC(=S)N/N=C/c1cc2ccccc2nc1SCc1cn(CC(=O)Nc2cccc([N+](=O)[O-])c2)nn1 [Compound 10k, (E)-2-(4-(((3-((2-Carbamothioylhydrazineylidene)methyl)quinolin-2-yl)thio)methyl)-1H-1,2,3-triazol-1-yl)-N-(3-nitrophenyl)acetamide]",Fold increase of inhibitory activity relative to compound 10m,yeast α-glucosidase,2.58 folds
"Cc1cc([N+](=O)[O-])ccc1NC(=O)Cn1cc(CSc2nc3ccccc3cc2/C=N/NC(N)=S)nn1 [Compound 10l, (E)-2-(4-(((3-((2-Carbamothioylhydrazineylidene)methyl)quinolin-2-yl)thio)methyl)-1H-1,2,3-triazol-1-yl)-N-(2-methyl-4-nitrophenyl)acetamide]",Fold increase of inhibitory activity relative to compound 10m,yeast α-glucosidase,1.82 folds
"Cc1cccc(NC(=O)Cn2cc(CSc3nc4ccccc4cc3/C=N/NC(N)=S)nn2)c1C [Compound 10f, (E)-2-(4-(((3-((2-Carbamothioylhydrazineylidene)methyl)quinolin-2-yl)thio)methyl)-1H-1,2,3-triazol-1-yl)-N-(2,3-dimethylphenyl)acetamide]",Fold decrease of inhibitory activity relative to compound 10g,yeast α-glucosidase,1.6 folds
"Cc1ccccc1NC(=O)Cn1cc(CSc2nc3ccccc3cc2/C=N/NC(N)=S)nn1 [Compound 10b, (E)-2-(4-(((3-((2-Carbamothioylhydrazineylidene)methyl)quinolin-2-yl)thio)methyl)-1H-1,2,3-triazol-1-yl)-N-(o-tolyl)acetamide]",Fold decrease of inhibitory activity relative to compound 10g,yeast α-glucosidase,2.3 folds
"NC(=S)N/N=C/c1cc2ccccc2nc1SCc1cn(CC(=O)NCCc2ccccc2)nn1 [Compound 10n, (E)-2-(4-(((3-((2-Carbamothioylhydrazineylidene)methyl)quinolin-2-yl)thio)methyl)-1H-1,2,3-triazol-1-yl)-N-phenethylacetamide]",Ki,α-glucosidase,48.1 µM
same,Mode of α-glucosidase inhibition,"α-glucosidase; Lineweaver–Burk plot, inhibitor 0, 12.1, 24.2, 48.4 µM",competitive α-glucosidase inhibitor
same,Improving the inhibitory effect (times more potent than acarbose),yeast α-glucosidase,15.5

# Reference: article PMC11680592 (Scientific Reports, 2024)
